Experimental data: paper PMC11851430, “Workflow for E3 Ligase Ligand Validation for PROTAC Development” (ACS Chemical Biology, 2025)

Legend:
[1] = target: T1, EPHA7A (Homo sapiens, UniProt Q15375); assay: DSF assay; format: binding; details: 20 µM compound
T1 construct: purchased in-house DSF panel (SGC-style construct names; the trailing A/B is a construct suffix)

[2] = target: full-length AAK1 (Homo sapiens, UniProt Q2M2I8); assay: NanoBRET target engagement assay, intact and permeabilized cells
Chain of full-length AAK1 (Q2M2I8 whole entry): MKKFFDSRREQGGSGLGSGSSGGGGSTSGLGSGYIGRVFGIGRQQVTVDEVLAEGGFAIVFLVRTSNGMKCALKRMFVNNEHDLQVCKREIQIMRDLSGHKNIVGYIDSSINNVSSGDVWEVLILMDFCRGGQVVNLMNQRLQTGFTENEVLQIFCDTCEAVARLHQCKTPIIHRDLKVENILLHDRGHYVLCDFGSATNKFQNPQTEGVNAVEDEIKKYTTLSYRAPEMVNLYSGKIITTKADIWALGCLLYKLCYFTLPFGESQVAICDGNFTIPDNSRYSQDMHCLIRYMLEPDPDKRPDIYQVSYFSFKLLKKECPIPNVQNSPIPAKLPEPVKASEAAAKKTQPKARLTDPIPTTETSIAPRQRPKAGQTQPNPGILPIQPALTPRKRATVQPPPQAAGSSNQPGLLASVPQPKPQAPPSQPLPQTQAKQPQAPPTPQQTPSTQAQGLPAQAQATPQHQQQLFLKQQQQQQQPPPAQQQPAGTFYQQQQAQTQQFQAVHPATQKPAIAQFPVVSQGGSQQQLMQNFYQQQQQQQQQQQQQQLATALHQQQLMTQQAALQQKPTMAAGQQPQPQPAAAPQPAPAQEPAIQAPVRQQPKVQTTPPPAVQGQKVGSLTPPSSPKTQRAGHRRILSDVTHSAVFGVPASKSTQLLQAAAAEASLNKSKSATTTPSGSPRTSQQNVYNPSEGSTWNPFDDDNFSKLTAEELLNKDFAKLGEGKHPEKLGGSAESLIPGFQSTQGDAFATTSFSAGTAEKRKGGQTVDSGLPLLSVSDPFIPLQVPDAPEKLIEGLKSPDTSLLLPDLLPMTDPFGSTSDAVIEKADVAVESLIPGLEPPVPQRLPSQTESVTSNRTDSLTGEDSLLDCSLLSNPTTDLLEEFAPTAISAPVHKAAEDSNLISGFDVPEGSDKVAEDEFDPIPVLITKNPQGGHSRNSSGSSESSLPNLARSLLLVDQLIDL

[3] = target: T2, VRK1A (Homo sapiens, UniProt Q99986); assay: DSF assay; format: binding; details: 20 µM compound
T2 construct: purchased in-house DSF panel (SGC-style construct names; the trailing A/B is a construct suffix)
T2 sequence (Q99986 1-396): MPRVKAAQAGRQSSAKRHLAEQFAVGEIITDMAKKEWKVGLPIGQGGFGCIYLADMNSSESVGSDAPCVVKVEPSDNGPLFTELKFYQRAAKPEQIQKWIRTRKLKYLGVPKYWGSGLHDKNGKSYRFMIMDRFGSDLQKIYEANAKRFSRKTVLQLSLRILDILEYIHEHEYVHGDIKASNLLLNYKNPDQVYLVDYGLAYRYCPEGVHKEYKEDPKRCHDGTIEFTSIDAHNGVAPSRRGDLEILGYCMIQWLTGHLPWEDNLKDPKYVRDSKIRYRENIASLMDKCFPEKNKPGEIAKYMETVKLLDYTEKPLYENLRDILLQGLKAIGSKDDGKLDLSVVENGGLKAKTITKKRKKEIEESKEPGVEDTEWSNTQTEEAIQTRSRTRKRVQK

[4] = target: T3, EPHA2A (Homo sapiens, UniProt P29317); assay: DSF assay; format: binding; details: 20 µM compound
T3 construct: purchased in-house DSF panel (SGC-style construct names; the trailing A/B is a construct suffix)
T3 sequence (P29317 596-900): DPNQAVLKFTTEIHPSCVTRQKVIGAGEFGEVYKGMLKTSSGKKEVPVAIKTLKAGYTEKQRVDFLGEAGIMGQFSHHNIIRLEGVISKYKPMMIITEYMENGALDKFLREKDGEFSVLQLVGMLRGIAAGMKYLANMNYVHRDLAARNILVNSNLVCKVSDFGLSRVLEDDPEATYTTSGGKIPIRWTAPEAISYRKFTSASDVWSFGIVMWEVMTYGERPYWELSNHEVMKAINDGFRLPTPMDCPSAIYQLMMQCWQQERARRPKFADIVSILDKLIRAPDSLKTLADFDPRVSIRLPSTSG

[5] = target: T4, FGFR1B (Homo sapiens, UniProt P11362); assay: DSF assay; format: binding; details: 20 µM compound
T4 construct: purchased in-house DSF panel (SGC-style construct names; the trailing A/B is a construct suffix)
T4 sequence (P11362 456-767): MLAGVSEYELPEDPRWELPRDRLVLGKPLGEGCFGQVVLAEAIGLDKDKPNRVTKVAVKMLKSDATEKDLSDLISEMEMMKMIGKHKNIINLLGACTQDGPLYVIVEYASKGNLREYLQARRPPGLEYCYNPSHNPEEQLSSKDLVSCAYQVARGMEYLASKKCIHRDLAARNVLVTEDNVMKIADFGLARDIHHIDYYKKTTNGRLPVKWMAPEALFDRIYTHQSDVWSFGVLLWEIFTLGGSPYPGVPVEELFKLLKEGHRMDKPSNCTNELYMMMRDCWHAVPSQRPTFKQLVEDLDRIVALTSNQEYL

[6] = target: T5, kinase protein levels in MCF-7 cells (Homo sapiens, UniProt A0A096LP01); assay: TMT-labeled quantitative proteomics; format: cell-based
T5 construct: endogenous in cells; host or cells: MCF-7
T5 sequence (A0A096LP01 whole entry): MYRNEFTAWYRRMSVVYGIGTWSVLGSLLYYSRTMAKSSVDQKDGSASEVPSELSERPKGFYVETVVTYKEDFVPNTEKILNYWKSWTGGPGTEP
Description: (§1) 50 µl of SDS Lysis Buffer (2% SDS, 50 mM TRIS pH 8.5, 10 mM TCEP, 40 mM CAA) was added to each sample. Cells were transferred into low binding reaction tubes (Eppendorf:
(§2) Methanol/Chloroform Precipitation. 200 µl of methanol and 50 µl of chloroform were added to each sample reaction tube and mixed via vortex. 150 µl of milliQ-H2O were added and samples were vortexed further. Samples were centrifuged for 5 minutes at 15000 g and the aqueous layer above the interphase was removed. 150 µl of methanol was added, samples were vortexed and centrifuged for 10 minutes at 15000 g to precipitate the pellet. The aforementioned wash procedure was repeated twice before transferring the pellet to a new low bind reaction tube in which it was allowed to dry for 5 minutes.
(§3) Dissolving the Protein Pellet and Protein Quantification. 50 µl of digestion buffer (8 M Urea, 50 mM TRIS pH 8) was added to each sample before vortexing and shaking at 750 rpm at room temperature for 10 minutes to solubilize the pellet. Protein quantification via PierceTM […]
(§4) Protein Digestion. Samples were diluted 1:2 with 50 mM TRIS pH 8.5 to reach a final concentration of 4 M Urea. Lys-C (Promega: VA1170) was added at a 1:100 enzyme/substrate ratio. Samples were agitated at 550 rpm and 37 °C for 3 h. Samples were further diluted with 50 mM TRIS pH 8.5 to a final concentration of 1 M Urea and Trypsin (Promega: V5280) was added at a 1:100 enzyme/substrate ratio. Samples were agitated overnight at 550 rpm and 37 °C. The digestion was stopped the following day via addition of TFA to a final concentration […]
(§5) Solid Phase Extraction via C18 Cartridges. Sep-Pak C18 Cartridges (Waters: WAT054955) were used for solid phase extraction of digested peptides. For preconditioning of C18 cartridges, 1 mL of methanol was added to each column followed by 1 mL of solution B (0.1% formic acid, 80% acetonitrile) and 1 mL of solution A (0.1% formic acid, ddH2O) twice. Samples […]
(§6) were loaded to their respective columns and once samples had passed, columns were washed twice with solution A to remove unwanted components from the loading step. Elution of samples was carried out via introduction of 40% and 60% acetonitrile steps. Samples were dried and snap frozen in liquid nitrogen.
(§7) TMT-Labeling. Desalted peptides were dried and resuspended in TMT-labeling buffer (200 mM EPPS pH 8.2, 20% acetonitrile). 10 μg of peptides per condition were subjected to TMT labeling with 1:2.5 peptide TMT ratio (w/w) for 1 h at room temperature. The labeling reaction was quenched by addition of hydroxylamine to a final concentration of 0.5% and incubation at room temperature for 15 minutes. Successful TMT labeling was verified by mixing equimolar ratios of peptides and subjecting the mix to single shot LC-MS/MS analysis. For high pH reversed phase fractionation on a Dionex analytical HPLC, 50 µg of pooled and purified TMT labelled samples were resuspended in 10 mM ammonium-bicarbonate (ABC), 5% acetonitrile, and separated on a 250 mm long C18 column (Aeris Peptide XB-C18, 4.6 mm ID, 2.6 µm particle size; Phenomenex) using a multistep gradient from 100% solvent A (5% acetonitrile, 10 mM ABC in water) to 60% solvent B (90% acetonitrile, 10 mM ABC in water) over 70 minutes. Eluting peptides were collected every 45 seconds into a total of 96 fractions, which were cross-concatenated into 24 fractions and dried in a vacuum concentrator and resuspended in 3% acetonitrile with 0.1% TFA for LC-MS analysis.
(§8) Mass spectrometry data acquisition. Tryptic peptides were analyzed on an Orbitrap Lumos coupled to an easy nLC 1200 (ThermoFisher Scientific) using a 35 cm long, 75 µm ID fused-silica column packed in house with 1.9 µm C18 particles (Reprosil pur, Dr. Maisch), and kept at 50 °C using an integrated column oven (Sonation). HPLC solvents consisted of 0.1% formic acid in water (buffer A) and 0.1% formic acid and 80% acetonitrile in water (buffer B). Assuming

[7] = tested on: kinase protein levels in MCF-7 cells; assay: TMT-labeled quantitative proteomics; format: cell-based, human; details: for kinase degradation: MCF-7 cells, 6 h
Description: as §1, §2, §3, §4, §5, §6, §7, §8

[8] = AAK1 intact (IC50±sd)/μM, NanoBRET, intact cells, mean of duplicates, ^a values estimated by extrapolation
[9] = AAK1 permeabilized (IC50±sd)/μM, NanoBRET, permeabilized cells, mean of duplicates
[10] = protein LINC00493, MCF7, 2.5 µM, set3
[11] = protein LINC00493, MCF, 0.25µM, set4
[12] = protein NBPF19;NBPF8;NBPF10;NBPF15;NBPF26;NBPF14;NBPF1;NBPF12, MCF, 0.25µM, set4
[13] = protein NBPF19;NBPF8;NBPF26;NBPF14;NBPF12;NBPF10;NBPF15;NBPF1, MCF7, 2.5 µM, set3
[14] = protein NBPF19;NBPF15;NBPF8;NBPF10;NBPF26;NBPF14, MCF7, 1 µM, set1.1
[15] = protein NUDT4, MCF7, 1 µM, set1.1
[16] = protein NUDT4;NUDT11;NUDT10, MCF, 0.25µM, set4
[17] = protein UQCRHL;UQCRH, MCF, 0.25µM, set4
[18] = protein SMIM26, MCF7, 1 µM, set2
[19] = protein LINC00493, MCF7, 1 µM, set5

T1 sequence (Q15375 590-899): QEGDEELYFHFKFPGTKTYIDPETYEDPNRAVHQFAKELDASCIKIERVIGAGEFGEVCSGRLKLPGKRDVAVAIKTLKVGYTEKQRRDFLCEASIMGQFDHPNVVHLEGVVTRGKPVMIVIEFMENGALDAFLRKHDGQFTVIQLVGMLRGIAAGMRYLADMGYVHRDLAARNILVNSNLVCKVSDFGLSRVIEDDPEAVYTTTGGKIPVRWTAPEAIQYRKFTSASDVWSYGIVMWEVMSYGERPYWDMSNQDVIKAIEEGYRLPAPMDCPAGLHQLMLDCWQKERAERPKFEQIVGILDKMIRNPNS

IC50 [2, 8] [µM] | IC50 [2, 9] [µM] | P.Value (compound/DMSO) [6, 10] | log2FC (compound/DMSO) [6, 10] | P.Value (compound/DMSO) [6, 11] | log2FC (compound/DMSO) [6, 11] | Structure (SMILES) | kinase degradation ([7]; 0.25 μM) | kinase degradation ([7]; 1 μM) | kinase degradation ([7]; 2.5 μM) | log2FC (compound/DMSO) [7, 12] | log2FC (compound/DMSO) [7, 13] | log2FC (compound/DMSO) [7, 14] | log2FC (compound/DMSO) [7, 15] | log2FC (compound/DMSO) [7, 16] | log2FC (compound/DMSO) [7, 17] | other results
~8.76 | 0.162 ± 0.002 | – | – | – | – | Cc1ncsc1-c1ccc(CNC(=O)[C@@H]2C[C@@H](O)CN2C(=O)[C@@H](NC(=O)CCOCCOCCNC(=O)c2cc(Nc3cc(C4CC4)[nH]n3)nc(Nc3ccc(CC#N)cc3)n2)C(C)(C)C)cc1 [5-a] | – | did not result in significant degradation of any kinase | – | – | – | -0.2083 | -0.05063 | – | – | AAK1 intact (IC50±sd)/μM ([2]; NanoBRET, intact cells, mean of duplicates, ^a values estimated by extrapolation): single-digit micromolar; cell permeability / cell penetration ([2]; as shown by the NanoBRET data (intact vs permeabilized cells)): poor cell permeability
0.299 ± 0.038 | 0.192 ± 0.005 | – | – | – | – | CC(=O)N[C@H](C(=O)N1C[C@H](O)C[C@H]1C(=O)NCc1ccc(-c2scnc2C)cc1OCCOCCOCCOCCNC(=O)c1cc(Nc2cc(C3CC3)[nH]n2)nc(Nc2ccc(CC#N)cc2)n1)C(C)(C)C [5-b] | – | did not result in significant degradation of any kinase | – | – | – | – | – | – | – | P.Value (compound/DMSO) [6, 18]: 0.1541; log2FC (compound/DMSO) [6, 18]: -0.1317
0.13 ± 0.003 | 0.055 ± 0.002 | 0.00484 | -0.4049 | 0.5319 | -0.03906 | Cc1ncsc1-c1ccc(CNC(=O)[C@@H]2C[C@@H](O)CN2C(=O)[C@@H](NC(=O)CCOCCOCCOCCOCCN2CCN(c3ccc(Nc4ncc(Cl)c(Nc5ccccc5C(N)=O)n4)cc3)CC2)C(C)(C)C)cc1 [6-b] | Few kinases were degraded | significant degradation of several kinases | the number of degraded kinases was again lower | -0.06617 | -0.2581 | -0.7206 | -0.1525 | 0.182 | 0.8692 | –
0.1 ± 0.008 | 0.053 ± 0.003 | – | – | – | – | Cc1ncsc1-c1ccc(CNC(=O)[C@@H]2C[C@@H](O)CN2C(=O)[C@@H](NC(=O)CCCCCCN2CCN(c3ccc(Nc4ncc(Cl)c(Nc5ccccc5C(N)=O)n4)cc3)CC2)C(C)(C)C)cc1 [6-d] | – | significant degradation of several kinases | – | – | – | – | – | – | – | P.Value (compound/DMSO) [6, 19]: 0.0001847; log2FC (compound/DMSO) [6, 19]: -0.9636; log2FC (compound/DMSO) ([7]; protein ARHGEF5;ARHGEF35, MCF7, 1 µM, set5): 0.09474; log2FC (compound/DMSO) ([7]; protein NBPF19;NBPF15;NBPF8;NBPF10;NBPF3;NBPF11;NBPF26;NBPF14;NBPF1;NBPF12, MCF7, 1 µM, set5): -0.4722
0.53 ± 0.246 | 0.123 ± 0.02 | 0.7735 | 0.04253 | 0.8916 | -0.008166 | CC(=O)N[C@H](C(=O)N1C[C@H](O)C[C@H]1C(=O)NCc1ccc(-c2scnc2C)cc1OCCOCCOCCOCCOCCC(=O)N1CCN(c2ccc(Nc3ncc(Cl)c(Nc4ccccc4C(N)=O)n3)cc2)CC1)C(C)(C)C [6-e] | no significantly degraded kinases were detected | did not result in significant degradation of any kinase | no significantly degraded kinases were detected | 0.2043 | 0.155 | – | – | -0.054 | -0.5234 | P.Value (compound/DMSO) [6, 18]: 0.2313; log2FC (compound/DMSO) [6, 18]: -0.1331

The remaining lines, values behind:

Structure (SMILES) | IC50 [2, 8] [µM] | IC50 [2, 9] [µM] | P.Value (compound/DMSO) [6, 10] | log2FC (compound/DMSO) [6, 10] | P.Value (compound/DMSO) [6, 11] | log2FC (compound/DMSO) [6, 11] | kinase degradation ([7]; 0.25 μM) | kinase degradation ([7]; 1 μM) | kinase degradation ([7]; 2.5 μM) | log2FC (compound/DMSO) [7, 12] | log2FC (compound/DMSO) [7, 13] | log2FC (compound/DMSO) [7, 14] | log2FC (compound/DMSO) [7, 15] | log2FC (compound/DMSO) [7, 16] | log2FC (compound/DMSO) [7, 17] | other results
CC(C)(C)OC(=O)NCCOCCOCCOCCOCCC(=O)N1CCN(c2cc(Nc3cc(C4CC4)[nH]n3)nc(Nc3ccc(CC#N)cc3)n2)CC1 [4-L] | 0.099 ± 0.011 | 0.023 ± 0.004 | – | – | – | – | – | – | – | – | – | – | – | – | – | ΔTm at 20 µM [1]: 1.51 °C; ΔTm at 20 µM [3]: 0.29 °C; ΔTm at 20 µM [4]: 8.99 °C; ΔTm at 20 µM [5]: 6.61 °C
Cc1ncsc1-c1ccc(CNC(=O)[C@@H]2C[C@@H](O)CN2C(=O)[C@@H](NC(=O)CCOCCOCCOCCN2CCN(c3cc(Nc4cc(C5CC5)[nH]n4)nc(Nc4ccc(CC#N)cc4)n3)CC2)C(C)(C)C)cc1 [4-a] | 0.21 ± 0.044 | 0.057 ± 0.004 | 0.002092 | 0.3781 | 0.1285 | 0.1013 | Few kinases were degraded | significant degradation of several kinases | the number of degraded kinases was again lower | 0.1164 | 0.132 | -0.3973 | -0.04751 | 0.003804 | 0.8375 | –
CC(C)(C)OC(=O)NCCCOCCOCCOCCCNC(=O)c1cc(Nc2cc(C3CC3)[nH]n2)nc(Nc2ccc(CC#N)cc2)n1 [5-L] | 0.308 ± 0.032 | 0.07 ± 0.012 | – | – | – | – | – | – | – | – | – | – | – | – | – | ΔTm at 20 µM [1]: 2.65 °C; ΔTm at 20 µM [3]: 0.51 °C; ΔTm at 20 µM [4]: 4.48 °C; ΔTm at 20 µM [5]: 3.47 °C
